From ChEMBL document CHEMBL1130561, “Batrachotoxin binding site antagonists” (Bioorg Med Chem Lett, 1997)

Columns and labels:
[1] = molecular target: Sodium channel alpha subunits; brain (Types I, II, III) (Rattus norvegicus, UniProt P04775+P04774+P08104); experiment: Inhibition of [3H]batrachotoxin binding to rat brain neuronal membranes; type: cell membranes, Membrane
[2] = molecular target: Sodium channel alpha subunits; brain (Types I, II, III) (Homo sapiens, UniProt P35498+Q99250+Q9NY46); experiment: Antagonism of batrachotoxin-mediated sodium ion uptake into cultured neuroblastoma cells; type: functional

CO[C@]12CCC3(C)C(CCC[C@@]3(CO)O1)C2
IC50 [1]: 2000 µM
IC50 [2]: 1000 µM

CN(C)CCC[C@@H](O)[C@@]12CCCC3C[C@@](OCc4ccccc4)(CCC31C)O2
IC50 [1]: 4.5 µM
IC50 [2]: 4 µM

COC[C@H](CCOC(=O)c1ccccc1)C[C@@H](O)[C@@]12CCCC3C[C@@](OC)(CCC31C)O2
IC50 [1]: 10 µM
IC50 [2]: 5 µM

COc1ccc(C(=O)O[C@H]2CC[C@@]3(C)[C@@H]4CC[C@H]5[C@]6(O)C[C@H](O)[C@@]7(O)[C@@H](CN8C[C@@H](C)CC[C@H]8[C@@]7(C)O)[C@]6(O)C[C@@]53O[C@]24O)cc1OC [VERATRIDINE]
IC50 [1]: 22 µM

CC12CC[C@]3(OCc4cccc(Br)c4)CC1CCC[C@@]2(CO)O3
IC50 [1]: 10 µM
IC50 [2]: 80 µM

CO[C@]12CCC3(C)C(CCC[C@@]3([C@H](O)C[C@@H](CCOC(=O)c3ccccc3)CN(C)C)O1)C2
IC50 [1]: 3.6 µM
IC50 [2]: 0.5 µM

CCCCNc1ccc(C(=O)OCCN(C)C)cc1 [TETRACAINE]
IC50 [1]: 6 µM

CO[C@]12CCC3(C)C(CCC[C@@]3([C@H](O)CCCN(C)C)O1)C2
IC50 [1]: 130 µM
IC50 [2]: 200 µM
